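Briefly, cells in 96-well plates were exposed to five compound concentrations for 48 h, and endpoints were estimated by linear interpolation. Abbreviation: GI50, concentration required for 50% inhibition of growth.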 The source made the active and inactive calls. Cut-off read from the data, not from the text of the source: active = GI50 up to about 1.1 µM and inactive = higher.
Experiments:
Assay in all cases: NCI anticancer screen, dose series, 48 h
[1] = system: 786-0
[2] = system: A549
[3] = system: HCT-116
[4] = system: HCT-15
[5] = system: HOP-62
[6] = system: HOP-92
[7] = system: IGROV-1
[8] = system: K562
[9] = system: KM12
[10] = system: M14
[11] = system: OVCAR-3
[12] = system: OVCAR-5
[13] = system: SF-295
[14] = system: SK-MEL-2
[15] = system: SK-OV-3
[16] = system: SNB-19
[17] = system: U-251
[18] = system: UACC-257
[19] = system: UACC-62
[20] = system: COLO 205

SMILES | GI50 [1] | GI50 [2] | GI50 [3] | GI50 [4] | GI50 [5] | GI50 [6] | GI50 [7] | GI50 [8] | GI50 [9] | GI50 [10] | GI50 [11] | GI50 [12] | GI50 [13] | GI50 [14] | GI50 [15] | GI50 [16] | GI50 [17] | GI50 [18] | GI50 [19] | GI50 [20]
O=[N+]([O-])c1ccc(C(=S)Nc2ccccc2)o1 | 2.07 µM (inactive) | 6.55 µM (inactive) | 1.81 µM (inactive) | 2.07 µM | 2.65 µM (inactive) | 15.3 µM (inactive) | 6.1 µM (inactive) | 0.938 µM (active) | 2.38 µM (inactive) | 4.94 µM (inactive) | 2.19 µM (inactive) | 4.54 µM (inactive) | 5.56 µM (inactive) | 2.48 µM (inactive) | 11.4 µM (inactive) | 4.62 µM (inactive) | 1.48 µM (inactive) | 4.3 µM (inactive) | 3.46 µM (inactive) | 
Clc1ccc2oc(CCC3CCCCC3)nc2c1 | 28.2 µM (inactive) | 31.6 µM (inactive) | 31.4 µM (inactive) | 24.7 µM | 22.3 µM (inactive) | 35.2 µM (inactive) |  | 38.2 µM (inactive) | 26.4 µM (inactive) | 32 µM (inactive) | 15.6 µM (inactive) | 33.3 µM (inactive) | 22 µM (inactive) | 19.1 µM (inactive) | 26.1 µM (inactive) | 42.3 µM (inactive) | 19.3 µM (inactive) | 30.6 µM (inactive) | 60.4 µM (inactive) | 21.4 µM (inactive)
O=C(/C=C/c1ccc([N+](=O)[O-])cc1)c1ccc(NCc2nc3ccccc3[nH]2)cc1 | 3.13 µM (inactive) |  |  | 2.93 µM | 10 µM (inactive) | 8.57 µM (inactive) | 4.48 µM (inactive) | 2.3 µM (inactive) | 1.78 µM (inactive) | 11.5 µM (inactive) | 3.09 µM (inactive) | 13.5 µM (inactive) | 3.86 µM (inactive) | 14.9 µM (inactive) | 13.6 µM (inactive) | 3.56 µM (inactive) | 1.75 µM (inactive) | 3.41 µM (inactive) | 9.84 µM (inactive) | 2.07 µM (inactive)
CC(=O)O[C@H]1CC[C@@]2(C)C(=CC[C@@H]3[C@@H]2CC[C@]2(C)Nc4c(cnn4S(C)(=O)=O)C[C@@H]32)C1 |  |  |  | 43.6 µM | 89.9 µM (inactive) | 71.3 µM (inactive) | 97.1 µM (inactive) | 19.1 µM (inactive) | 52.8 µM (inactive) | 27.8 µM (inactive) | 48 µM (inactive) | 38.2 µM (inactive) | 62.2 µM (inactive) | > 100 µM (inactive) | > 100 µM (inactive) | > 100 µM (inactive) | 76.7 µM (inactive) |  | 47.3 µM (inactive) | 69 µM (inactive)
COc1cc([C@@H]2c3cc4c(cc3[C@@H](c3c(O)cc(O)c5c3O[C@H](c3ccc(O)c(O)c3)[C@H](OC(=O)c3cc(O)c(O)c(O)c3)C5)[C@H]3COC(=O)[C@H]23)OCO4)cc(OC)c1O | 22.5 µM (inactive) | 29.4 µM (inactive) | 23.7 µM (inactive) | 40.8 µM | 51.8 µM (inactive) | 58.2 µM (inactive) | 57.7 µM (inactive) |  | 32 µM (inactive) | 23.4 µM (inactive) | 28.2 µM (inactive) | 39.4 µM (inactive) | 39.3 µM (inactive) | 57.9 µM (inactive) | 44.1 µM (inactive) | 30.1 µM (inactive) | 46.5 µM (inactive) | > 100 µM (inactive) | 98.9 µM (inactive) | 28.7 µM (inactive)
COc1cccc(/C=N/[N-]C(=S)Nc2ccccc2)c1[O-].O.[Zn+2] | > 100 µM (inactive) | 34.1 µM (inactive) |  | 31.6 µM | 17 µM (inactive) | 73.5 µM (inactive) | 52 µM (inactive) | 42 µM (inactive) | 40.6 µM (inactive) | 44.5 µM (inactive) | 40.5 µM (inactive) | > 100 µM (inactive) | 76.7 µM (inactive) | 63.7 µM (inactive) | 44.4 µM (inactive) | 66.1 µM (inactive) | 60.4 µM (inactive) | 55.5 µM (inactive) | 19.7 µM (inactive) | 
CC(NC(=O)C(NC(=O)C(NC(=O)C(F)(F)F)C(C)C)C(C)C)C(=O)Oc1c(Cl)c(Cl)c(Cl)c(Cl)c1Cl (stereo unspecified) |  | > 100 µM (inactive) | > 100 µM (inactive) | > 100 µM | > 100 µM (inactive) | 32.5 µM (inactive) | > 100 µM (inactive) | > 100 µM (inactive) | > 100 µM (inactive) | > 100 µM (inactive) | 92.5 µM (inactive) | > 100 µM (inactive) |  | > 100 µM (inactive) | > 100 µM (inactive) | > 100 µM (inactive) | > 100 µM (inactive) | > 100 µM (inactive) | > 100 µM (inactive) | > 100 µM (inactive)
COC(=O)/C=C1\SC2(O\C1=N/c1ccccc1)C1CC3CC(C1)CC2C3 (stereo unspecified) |  | > 100 µM (inactive) | > 100 µM (inactive) | > 100 µM | > 100 µM (inactive) | > 100 µM (inactive) | > 100 µM (inactive) | > 100 µM (inactive) | > 100 µM (inactive) |  | > 100 µM (inactive) | > 100 µM (inactive) | > 100 µM (inactive) | > 100 µM (inactive) | > 100 µM (inactive) | > 100 µM (inactive) | > 100 µM (inactive) | > 100 µM (inactive) | > 100 µM (inactive) | 
Cc1cc(-c2ccc(C(=O)C(Cl)(Cl)Cl)[nH]2)on1 | 37 µM (inactive) | 33.5 µM (inactive) | 18 µM (inactive) | 28 µM | 11.4 µM (inactive) | 51.5 µM (inactive) |  | 18.3 µM (inactive) | 12.2 µM (inactive) | 35.5 µM (inactive) | 25.1 µM (inactive) | 22.6 µM (inactive) | 33.3 µM (inactive) | 23.9 µM (inactive) | 60 µM (inactive) | 40.8 µM (inactive) | 15.4 µM (inactive) | 42.1 µM (inactive) | 28.2 µM (inactive) | 86.7 µM (inactive)
CCOC(=O)C(=O)NCCCN1CCOCC1 |  | > 100 µM (inactive) | > 100 µM (inactive) | > 100 µM | > 100 µM (inactive) | > 100 µM (inactive) | > 100 µM (inactive) | > 100 µM (inactive) | > 100 µM (inactive) | > 100 µM (inactive) | > 100 µM (inactive) | > 100 µM (inactive) | > 100 µM (inactive) | > 100 µM (inactive) | > 100 µM (inactive) | > 100 µM (inactive) | > 100 µM (inactive) | > 100 µM (inactive) | > 100 µM (inactive) | > 100 µM (inactive)
COc1cc(/N=C(\N)N=C(N)N)c2ncccc2c1 | 64.6 µM (inactive) | > 100 µM (inactive) | > 100 µM (inactive) | > 100 µM | > 100 µM (inactive) | 67 µM (inactive) | > 100 µM (inactive) |  | 45.3 µM (inactive) | > 100 µM (inactive) | > 100 µM (inactive) | > 100 µM (inactive) | > 100 µM (inactive) | > 100 µM (inactive) | > 100 µM (inactive) | 50.4 µM (inactive) | 38 µM (inactive) | > 100 µM (inactive) | > 100 µM (inactive) | 74.8 µM (inactive)
